Here are results for ten compounds from ChEMBL document CHEMBL3217648, “Glycosylated porphyrin derivatives and their photodynamic activity in cancer cells” (Medchemcomm, 2011).

Series [1] relates to HeLa. Kind of series: Phototoxicity against human HeLa cells at 1 uM after 24 hrs followed by halogen light irradiation by MTS assay. Type of series: functional, cell-based. For orientation: Tetrazolium dyes change colour on reduction, which living cells bring about.
A further series concerns HCT-116. Kind of series: Phototoxicity against human HCT116 cells at 1 uM after 24 hrs followed by halogen light irradiation by MTS assay. Type of series: functional, cell-based.
The nature of series [2]: Dark toxicity against human HeLa cells assessed as cell viability at 1 uM after 24 hrs by MTS assay. Format: cell-based. The following applies: read-out: Survival.
Series [3] can be described thus: Dark toxicity against human HCT116 cells assessed as cell viability at 1 uM after 24 hrs by MTS assay. Type of series: cell-based, HCT-116. The note with it: read-out: Survival.
For series [4], the system named is HeLa. In words: Cellular uptake in human HeLa cells at 1 uM after 24 hrs by fluorescence microscopy. Format: ADME, cell-based.

The source made the active and inactive calls. No cut-off for these calls is given here.

As to `CC1(C)O[C@H]2[C@@H](O1)[C@@H](C=O)O[C@@H]1OC(C)(C)O[C@@H]12`, the outcome with HeLa [1] and in the series on HCT-116 was inactive.
For the compound `CC1(C)O[C@H]2[C@@H](O1)[C@@H](c1c3nc(c(-c4c(F)c(F)c(F)c(F)c4F)c4ccc([nH]4)c([C@H]4O[C@@H]5OC(C)(C)O[C@@H]5[C@H]5OC(C)(C)O[C@H]54)c4nc(c(-c5c(F)c(F)c(F)c(F)c5F)c5ccc1[nH]5)C=C4)C=C3)O[C@@H]1OC(C)(C)O[C@@H]12`, the outcome with HeLa [1] and with HCT-116 was inactive.
As to `CC1(C)O[C@H]2[C@@H](O1)[C@@H](c1c3nc(c(-c4ccc([N+](=O)[O-])cc4)c4ccc([nH]4)c([C@H]4O[C@@H]5OC(C)(C)O[C@@H]5[C@H]5OC(C)(C)O[C@H]54)c4nc(c(-c5ccc([N+](=O)[O-])cc5)c5ccc1[nH]5)C=C4)C=C3)O[C@@H]1OC(C)(C)O[C@@H]12`, the outcome with HeLa [1] and in the series on HCT-116 was inactive.
Regarding `CC1(C)O[C@H]2[C@@H](O1)[C@@H](c1c3nc(c(-c4ccccc4)c4ccc([nH]4)c([C@H]4O[C@@H]5OC(C)(C)O[C@@H]5[C@H]5OC(C)(C)O[C@H]54)c4nc(c(-c5ccccc5)c5ccc1[nH]5)C=C4)C=C3)O[C@@H]1OC(C)(C)O[C@@H]12`, the result in the series on HeLa [1] and in the series with HCT-116 was inactive.
As to `CC1(C)O[C@H]2[C@@H](O1)[C@@H](c1c3nc(c(-c4ccc(Cl)cc4)c4ccc([nH]4)c([C@H]4O[C@@H]5OC(C)(C)O[C@@H]5[C@H]5OC(C)(C)O[C@H]54)c4nc(c(-c5ccc(Cl)cc5)c5ccc1[nH]5)C=C4)C=C3)O[C@@H]1OC(C)(C)O[C@@H]12`, the outcome in the series on HeLa [1] and in the series on HCT-116 was inactive.
For the compound `CC1(C)O[C@H]2[C@@H](O1)[C@@H](c1c3nc(c(-c4ccc(OC(F)(F)F)cc4)c4ccc([nH]4)c([C@H]4O[C@@H]5OC(C)(C)O[C@@H]5[C@H]5OC(C)(C)O[C@H]54)c4nc(c(-c5ccc(OC(F)(F)F)cc5)c5ccc1[nH]5)C=C4)C=C3)O[C@@H]1OC(C)(C)O[C@@H]12`, the outcome with HeLa [1] and in the series with HCT-116 was inactive.
As to `CSc1ccc(-c2c3nc(c([C@H]4O[C@@H]5OC(C)(C)O[C@@H]5[C@H]5OC(C)(C)O[C@H]54)c4ccc([nH]4)c(-c4ccc(SC)cc4)c4nc(c([C@H]5O[C@@H]6OC(C)(C)O[C@@H]6[C@H]6OC(C)(C)O[C@H]65)c5ccc2[nH]5)C=C4)C=C3)cc1`, the result in the series on HeLa [1] and in the series on HCT-116 was Active. The viability at 24 h, 1 µM in series [2] and in series [3] was above 90% each time. In addition, the Drug uptake result in the series with HeLa [4] was “Not Active”.
For `CC1(C)O[C@H]2[C@@H](O1)[C@@H](c1c3nc(c(-c4ccsc4)c4ccc([nH]4)c([C@H]4O[C@@H]5OC(C)(C)O[C@@H]5[C@H]5OC(C)(C)O[C@H]54)c4nc(c(-c5ccsc5)c5ccc1[nH]5)C=C4)C=C3)O[C@@H]1OC(C)(C)O[C@@H]12`, the result in the series on HeLa [1] and with HCT-116 was Active. Moreover, the viability at 24 h, 1 µM in series [2] and in series [3] was above 90% each time. For the same compound, the Drug uptake entry in the series with HeLa [4] is listed as “Active”.
Consider `COc1cccc(OC)c1-c1c2nc(c([C@H]3O[C@@H]4OC(C)(C)O[C@@H]4[C@H]4OC(C)(C)O[C@H]43)c3ccc([nH]3)c(-c3c(OC)cccc3OC)c3nc(c([C@H]4O[C@@H]5OC(C)(C)O[C@@H]5[C@H]5OC(C)(C)O[C@H]54)c4ccc1[nH]4)C=C3)C=C2`, for which the result with HeLa [1] and in the series with HCT-116 was inactive.
For the compound `COc1ccc(-c2c3nc(c([C@H]4O[C@@H]5OC(C)(C)O[C@@H]5[C@H]5OC(C)(C)O[C@H]54)c4ccc([nH]4)c(-c4ccc(OC)cc4)c4nc(c([C@H]5O[C@@H]6OC(C)(C)O[C@@H]6[C@H]6OC(C)(C)O[C@H]65)c5ccc2[nH]5)C=C4)C=C3)cc1`, the result in the series on HeLa [1] and in the series on HCT-116 was Active. The viability at 24 h, 1 µM in series [2] and in series [3] was above 90% throughout. Further, the Drug uptake result with HeLa [4] is given as “Not Active”.
